Experimental data from patent US12686971B2, “Method of controlling enzymatic activities and tools related thereto” (KEMIRA OYJ, priority 2020, dated 2026).

Assays:
ATP = ATP measured from pulp bottles; type: cell-based; settings: after 2 d
Method: (§1) 50 g liner board (from two different mills: 50% from a mill using ~50% unbleached kraft pulp and ~50% recycled fiber and 50% from a mill using 100% recycled fiber) was re-pulped with process water from a third mill using recycled fiber. The final consistency of the pulp was 1.0%. The pulp suspension was divided into 12 bottles and starch suspension (native potato starch) was added into each bottle, so that the concentration of added starch was 1.5 g/l. Six of the bottles (numbers 1-6) were put into an incubator with no other treatment. The other 6 bottles (numbers 7-12) were first pasteurized (1 h, +80° C.) in order to inactivate any enzymes present. After that, the bottles were treated with a biocide (50 mg/l monochloramine, as active chlorine). After this, all 12 bottles were kept at +40° C. with shaking for 4 days. During the incubation, 10 mg/l monochloramine was added daily into the bottles 7-12). At the beginning of the incubation, the pH of the pulp was 6.0, redox −46 mV and conductivity 4.8 mS/cm.
After 2 d, ATP was measured from each bottle and was 1000-fold higher in non-treated than treated bottles (average 71 000 pg/ml, st.dev. 3800, vs. average 70, st.dev. 7 pg/ml, respectively).

Anaerobic bacteria = test: Anaerobic bacterial count in pulp; type: cell-based; settings: pasteurized 1 h +80° C., 50 mg/l monochloramine then 10 mg/l daily, 4 d at +40° C., n = 6
Method: (§2) 50 g liner board was re-pulped with process water from a mill using recycled fiber. The final consistency of the pulp was 1.0% and the liner was from a mill using ~50% unbleached kraft pulp and ~50% recycled fiber. This mill uses about 6 kg/ton wet-end starch in the production of the liner. The pulp suspension was divided into 12 bottles. Six of the bottles were put into an incubator with no other treatment. The other 6 bottles were first pasteurized (1 h, +80° C.) in order to inactivate any enzymes present. After that, the bottles were treated with a combination of a biocide (Mixture of DBNPA, bronopol and CMIT/MIT, 100 mg/l as active substance) and either zinc or zinc comprising compound (25 mg/l as Zn^2+). After this, all 12 bottles were kept at +40° C. with shaking for 3 days. At the beginning of the incubation, the pH of the pulp was 6.64, redox+160 mV and conductivity 5.46 mS/cm.
After 3 d pH, ORP, and total and cellulolytic bacterial amounts were measured from each bottle.
50 g liner board (from two different mills: 50% from a mill using ~50% unbleached kraft pulp and ~50% recycled fiber and 50% from a mill using 100% recycled fiber) was re-pulped with process water from a third mill using recycled fiber. The final consistency of the pulp was 1.0%. […]
After 4 d pH, ORP, bacterial amounts and cellulase activity were measured from each bottle.

cellulase = test: Cellulase activity of RCF pulp samples, Enzchek Cellulase substrate; type: biochemical
Method: Cellulase activity expressed here as “mU/ml” may be obtained using Enzchek Cellulase substrate (Life Technologies, part of Thermo Fisher Scientific), using the manufacturer's instructions and measurement protocol where sodium acetate buffer is adjusted to pH 6.0 and the samples are diluted 1/10 to minimize inhibition and quenching by fibers.
For example, in soil research microbial cellulolytic potential can be tested with agar plate cultivation, but there are also commercially available substrates for measurement of cellulase activity directly from aqueous samples (cellulase production organism cultivation broths/extracts).
According to the supplier, the assay limit of detection is ~110% of the signal for blank (buffer instead of sample). In addition, standard curve was measured as recommended with Trichoderma mold cellulase (at recommended pH 5.0), but in addition also with Bacillus amyloliquefaciens cellulase (Megazyme; at recommended pH 6.0). Both gave near-linear standard curve with good sensitivity.
(§3) Short-term and long-term effect of biocides on cellulase activity of process samples was tested with laboratory incubations of recycled fiber (RCF) pulp samples at 40° C.

Aerobic bacteria = test: Culturable aerobic bacterial count in pulp; type: cell-based
Method: as §3, §2
as §1, with “After this, all 12 bottles were kept at +40° C. with shaking for 4 days. During the incubation, 10 mg/l monochloramine was added daily into the bottles 7-12).” left out

[1] = RCF pulp, MCA Day 1 50 mg/l, Day 2 and 3 10 mg/l, Days 4-8 no addition
[2] = pasteurized 1 h +80° C., 50 mg/l monochloramine then 10 mg/l daily, 4 d at +40° C., n = 6

## NCl [MCA, monochloramine]
ATP
  ATP higher in non-treated than treated bottles: 1000 fold
ATP; treated bottles, 50 mg/l monochloramine then 10 mg/l daily, +40° C.
  ATP, average: 70 pg/mL
Anaerobic bacteria
  Anaerobic bacteria, Average: 970 cfu/ml
cellulase; 5 d after the last biocide dosage, corresponding to 134% of the blank
  cellulase activity in process sample: ~ 0.2 mU/ml
cellulase; [1]
  Cellulase activity at 7 d, % compared to blank: 134%
cellulase; [2]
  Cellulase activity, Average: 0.44 mU/ml
Aerobic bacteria; 3-day experiment, daily dosages of MCA
  reduction of total CFUs: 5 orders of magnitude
Aerobic bacteria; RCF pulp, MCA Day 1 50 mg/l, Day 2 and 3 10 mg/l
  Aerobic bacteria, 3 d, cfu/ml: 6000 cfu/ml
Aerobic bacteria; [1]
  Aerobic bacteria, 6 d, cfu/ml: 30 000 000 cfu/ml
Aerobic bacteria; [2]
  Aerobic bacteria, Average: 8 700 cfu, ml
